Laboratory results from US6300317A, “Self-assembling polynucleotide delivery system” (The Regents of the University of California, priority 1995, dated 2001).
Like-named read-outs stand apart in the source and are kept apart here.

Assays:
calf thymus DNA [1] = assay: Ethidium bromide displacement assay, binding of bis-acridines to double-stranded DNA; conditions: computed from ethidium bromide displacement (IC50), noncooperative competitive binding model; read-out: Dissociation Constants of the Bis-acridines from Calf Thymus DNA
Protocol: The affinity of the bis-acridines for calf thymus DNA was calculated from the displacement of ethidium bromide from double stranded nucleic acids (Nielsen, supra). Ethidium displacement was monitored by the decrease of the ethidium bromide fluorescence (ex.=540 nm, em.=610 nm) that occurs when it is released from DNA. The association constants of the bis-acridines relative to ethidium bromide are calculated from their IC50. In this study, spermidine bis-acridine trihydrochloride (SBA.cndot.3HCl) synthesized as described (Nielsen, supra), was used as the reference compound. As a result of the loss of one of its three positive charges, a slight but significant decrease in affinity is observed when the N^4 amino group of spermidine bis-acridine is engaged in an amide bond with the targeting carbohydrate in compound 21 (Gal-bA.cndot.2 HCl). However, we predict an increase in affinity when spermidine bis-acridine is linked to the highly positively charged NLS peptide SEQ ID NO:1. G. Karup et al., Int J Peptide Protein Res (1988) 32:331-343.

calf thymus DNA [2] = conditions: constant used to compute the bis-acridine binding constants; read-out: intrinsic dissociation constant for ethidium bromide; cited from earlier work

SMILES	Kd (calf thymus DNA [1])	Kd (calf thymus DNA [2])
O=C(CCCCCS[C@@H]1O[C@H](CO)[C@H](O)[C@H](O)[C@H]1O)NCCCC[C@H](NC(=O)CCCCCS[C@@H]1O[C@H](CO)[C@H](O)[C@H](O)[C@H]1O)C(=O)N[C@@H](CCCCNC(=O)CCCCCS[C@@H]1O[C@H](CO)[C@H](O)[C@H](O)[C@H]1O)C(=O)N(CCCCNc1c2ccccc2nc2ccccc12)CCCNc1c2ccccc2nc2ccccc12 [Gal3 Lys2 -bA]	5.4 µM	–
CC[n+]1c(-c2ccccc2)c2cc(N)ccc2c2ccc(N)cc21 [ethidium bromide]	–	5.3 µM
c1ccc2c(NCCCCNCCCNc3c4ccccc4nc4ccccc34)c3ccccc3nc2c1 [SBA · 3HCl, N,N'-bis-(9-acridinyl)-4-aza-1,8-diaminooctane]	0.024 µM	–
